In assay [1] the target is FAAH (Homo sapiens (Human), UniProt O00519). The experiment in a line: In vitro competitive activity-based protein profiling, human proteomes (prefrontal cortex or PC3 cell membrane fractions). Particulars: human proteome; for inhibition at 1 µM: read-out: FAAH % inh. 1 μM (human). It counts as biochemical. An outline of the steps: (§1)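 Activity of MAGL and FAAH was quantified from fluorescent gel band intensities. Beforehand, inhibitors at several concentrations competed against subsequent probe labelling (FP-Rh, JW912 or HT-01) in species-matched proteomes, each step 30 min at 37° C.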
Chain of FAAH (Homo sapiens (Human), UniProt O00519) (O00519 whole entry): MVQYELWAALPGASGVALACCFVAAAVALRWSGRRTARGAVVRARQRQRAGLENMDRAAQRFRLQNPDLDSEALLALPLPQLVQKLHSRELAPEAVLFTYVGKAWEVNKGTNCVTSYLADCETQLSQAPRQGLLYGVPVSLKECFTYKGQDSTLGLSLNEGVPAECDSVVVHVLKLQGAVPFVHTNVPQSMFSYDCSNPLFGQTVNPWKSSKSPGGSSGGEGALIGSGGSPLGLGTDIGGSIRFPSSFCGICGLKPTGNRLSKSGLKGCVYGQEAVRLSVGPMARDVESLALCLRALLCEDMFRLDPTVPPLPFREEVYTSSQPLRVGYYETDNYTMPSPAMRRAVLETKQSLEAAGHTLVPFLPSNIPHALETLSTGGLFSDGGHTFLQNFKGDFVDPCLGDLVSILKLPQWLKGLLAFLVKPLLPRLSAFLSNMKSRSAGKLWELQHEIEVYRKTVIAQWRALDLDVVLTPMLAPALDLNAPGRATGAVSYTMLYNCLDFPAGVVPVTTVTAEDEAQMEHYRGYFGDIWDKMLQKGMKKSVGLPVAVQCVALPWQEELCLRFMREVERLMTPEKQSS

Assay [2] deals with MAGL (Homo sapiens (Human), UniProt Q99685). The assay is described as above. It counts as biochemical. Particulars: human proteome; for inhibition at 1 µM: read-out: MAGL % inh. 1 μM (human). An outline of the steps: as §1
Chain of MAGL (Homo sapiens (Human), UniProt Q99685) (Q99685 whole entry): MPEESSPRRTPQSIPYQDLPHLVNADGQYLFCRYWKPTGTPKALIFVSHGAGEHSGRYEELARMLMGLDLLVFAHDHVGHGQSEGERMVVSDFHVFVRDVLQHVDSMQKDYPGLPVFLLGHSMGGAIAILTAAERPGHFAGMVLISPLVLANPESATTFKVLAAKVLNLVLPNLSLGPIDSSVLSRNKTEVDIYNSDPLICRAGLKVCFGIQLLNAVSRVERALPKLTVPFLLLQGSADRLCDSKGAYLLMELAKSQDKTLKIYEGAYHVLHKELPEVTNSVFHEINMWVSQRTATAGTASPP
Assay [3] deals with T1, MAGL (Mus musculus (Mouse), UniProt O35678). The experiment in a line: Mouse brain proteomes from inhibitor treated mice (oral gavage, sacrificed 4 h after administration). It counts as in vivo. To be noted: 5 mg/kg oral gavage. As for the experimental part: (§2) Preparation of Mouse Brain Proteomes from Inhibitor Treated Mice.
T1 sequence (O35678 whole entry): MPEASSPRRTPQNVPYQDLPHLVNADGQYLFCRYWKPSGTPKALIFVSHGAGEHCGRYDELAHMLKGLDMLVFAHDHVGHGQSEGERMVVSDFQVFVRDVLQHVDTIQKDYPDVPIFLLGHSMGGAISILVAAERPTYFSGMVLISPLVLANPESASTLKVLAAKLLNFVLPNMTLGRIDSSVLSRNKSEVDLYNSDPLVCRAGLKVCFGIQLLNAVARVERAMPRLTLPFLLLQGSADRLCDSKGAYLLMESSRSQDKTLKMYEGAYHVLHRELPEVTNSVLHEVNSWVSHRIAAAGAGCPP
(§3) Inhibitors were administered to wild-type C57B1/6J by oral gavage in a vehicle of polyethylene glycol. Each animal was sacrificed 4 h following administration and brain proteomes were prepared and analyzed according to previously established methods (See Niphakis, M. J., et al. (2011) ACS Chem. Neurosci. and Long, J. Z., et al. Nat. Chem. Biol. 5:37-44).

Assay [4] deals with T2, FAAH (Mus musculus (Mouse), UniProt O08914). The assay is described as above. It counts as in vivo. Particulars: 5 mg/kg oral gavage. As for the experimental part: as §2, §3
T2 sequence (O08914 whole entry): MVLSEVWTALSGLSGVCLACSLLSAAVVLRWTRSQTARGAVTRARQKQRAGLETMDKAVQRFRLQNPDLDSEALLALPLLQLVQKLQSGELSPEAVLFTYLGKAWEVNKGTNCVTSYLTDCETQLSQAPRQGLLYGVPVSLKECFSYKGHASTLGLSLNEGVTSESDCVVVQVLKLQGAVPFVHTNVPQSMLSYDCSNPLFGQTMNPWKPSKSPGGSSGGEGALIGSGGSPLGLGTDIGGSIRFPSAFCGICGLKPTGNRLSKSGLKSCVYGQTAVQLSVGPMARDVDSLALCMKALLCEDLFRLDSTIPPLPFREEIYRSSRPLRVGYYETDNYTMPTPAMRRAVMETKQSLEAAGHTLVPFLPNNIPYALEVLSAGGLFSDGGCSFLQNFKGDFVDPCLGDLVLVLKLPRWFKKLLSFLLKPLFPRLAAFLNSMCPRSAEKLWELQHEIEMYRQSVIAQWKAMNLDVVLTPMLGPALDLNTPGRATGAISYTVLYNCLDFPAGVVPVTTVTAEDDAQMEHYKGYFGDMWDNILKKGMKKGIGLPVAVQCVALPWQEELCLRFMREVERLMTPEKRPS
Assay [5] concerns the target T1, MAGL. The experiment in a line: In vitro competitive activity-based protein profiling, mouse proteomes (brain membrane fraction or cell lysates). Particulars: mouse proteome, read-out: MAGL % inh. 1 μM (mouse). It counts as biochemical. An outline of the steps: as §1
For assay [6], the target named is T2, FAAH. Described as above. It counts as biochemical. Particulars: mouse proteome, read-out: FAAH % inh. 1 μM (mouse). The gist of the method:
as §1

Molecules are shown by their SMILES.

Usually IC50 stands for the point on the concentration scale where inhibition reaches its midpoint. Higher therefore signals weaker potency.

For the molecule `CC(=O)Nc1ccn(C(=O)N2CCC(C)(N(C)Cc3cc(C(F)(F)F)cc(C4(C(=O)O)CCCC4)c3)CC2)n1` [Example 132, 1-(3-(((1-(3-Acetamido-1H-pyrazole-1-carbonyl)-4-methylpiperidin-4-yl)(methyl)amino)methyl)-5-(trifluoromethyl)phenyl)cyclopentane-1-carboxylic acid], the inhibition at 1 µM at FAAH [1] is 0 to 25%; at MAGL [2], greater than 75%; on MAGL [5] it was greater than 75%; at FAAH [6] it was 0 to 25%. The IC50 at FAAH [1] was 1 to 10 µM; on MAGL [2], less than 0.1 µM. For the same molecule, the “MAGL % inh. 5 mg/kg (mouse)” value at MAGL [3] was “D (% inhibition is greater than or equal to 0% and less than 25%)”. On FAAH [4], the “FAAH % inh. 5 mg/kg (mouse)” value is “D (% inhibition is greater than or equal to 0% and less than 25%)”.

With `C[C@@H]1CN(C(=O)n2ccc(NS(C)(=O)=O)n2)CCN1Cc1ccc(Cl)c(N2CC3COCC3C2)c1` (stereo partly drawn) [Example 133, N-(1-((3R)-4-(4-Chloro-3-(tetrahydro-1H-furo[3,4-c]pyrrol-5(3H)-yl)benzyl)-3-methylpiperazine-1-carbonyl)-1H-pyrazol-3-yl)methanesulfonamide], the inhibition at 1 µM on FAAH [1] is 0 to 25%; on MAGL [2], greater than 75%; at MAGL [5], greater than 75%; on FAAH [6] it was 0 to 25%. Moreover, the “MAGL % inh. 5 mg/kg (mouse)” value on MAGL [3] is “D (% inhibition is greater than or equal to 0% and less than 25%)”. Moreover, the “FAAH % inh. 5 mg/kg (mouse)” value on FAAH [4] is “D (% inhibition is greater than or equal to 0% and less than 25%)”.

For the molecule `CS(=O)(=O)Nc1ccn(C(=O)N2CC[C@H](Oc3ccc(C(F)(F)F)c(N4CCC(F)CC4)c3)[C@H](F)C2)n1` [Example 134, N-(1-((3R,4S)-3-Fluoro-4-(3-(4-fluoropiperidin-1-yl)-4-(trifluoromethyl)phenoxy)piperidine-1-carbonyl)-1H-pyrazol-3-yl)methanesulfonamide], the inhibition at 1 µM at FAAH [1] is 0 to 25%; on MAGL [2] it was greater than 75%; at MAGL [5], greater than 75%; on FAAH [6], 0 to 25%. Also, at MAGL [3], the “MAGL % inh. 5 mg/kg (mouse)” value is “C (% inhibition is greater than or equal to 25% and less than 50%)”. The “FAAH % inh. 5 mg/kg (mouse)” value on FAAH [4] is “D (% inhibition is greater than or equal to 0% and less than 25%)”.

Turning to `C[C@H]1CN(Cc2ccc(Cl)c(N3CC4COCC4C3)c2)CCN1C(=O)n1ccc(NS(C)(=O)=O)n1` (stereo partly drawn) [Example 135, N-(1-((2S)-4-(4-Chloro-3-(tetrahydro-1H-furo[3,4-c]pyrrol-5(3H)-yl)benzyl)-2-methylpiperazine-1-carbonyl)-1H-pyrazol-3-yl)methanesulfonamide], the inhibition at 1 µM on FAAH [1] was 0 to 25%; on MAGL [2], greater than 75%; on MAGL [5], greater than 75%; on FAAH [6], 0 to 25%. For the same molecule, the “MAGL % inh. 5 mg/kg (mouse)” value at MAGL [3] was “D (% inhibition is greater than or equal to 0% and less than 25%)”. Moreover, the “FAAH % inh. 5 mg/kg (mouse)” value on FAAH [4] is “D (% inhibition is greater than or equal to 0% and less than 25%)”.

With `C[C@H]1CN(Cc2ccc(Cl)c(N3CCC(F)CC3)c2)CCN1C(=O)n1ccc(NS(C)(=O)=O)n1` [Example 136, (S)-N-(1-(4-(4-Chloro-3-(4-fluoropiperidin-1-yl)benzyl)-2-methylpiperazine-1-carbonyl)-1H-pyrazol-3-yl)methanesulfonamide], the inhibition at 1 µM on FAAH [1] is 0 to 25%; at MAGL [2], greater than 75%; on MAGL [5], greater than 75%; on FAAH [6], 0 to 25%. For the same molecule, the “MAGL % inh. 5 mg/kg (mouse)” value on MAGL [3] is “A (% inhibition is greater than or equal to 75%)”. Further, the “FAAH % inh. 5 mg/kg (mouse)” value at FAAH [4] was “D (% inhibition is greater than or equal to 0% and less than 25%)”.

In the case of `C[C@@H]1CN(Cc2ccc(Cl)c(N3CC4COCC4C3)c2)CCN1C(=O)n1ccc(NS(C)(=O)=O)n1` (stereo partly drawn) [Example 137, N-(1-((2R)-4-(4-Chloro-3-(tetrahydro-1H-furo[3,4-c]pyrrol-5(3H)-yl)benzyl)-2-methylpiperazine-1-carbonyl)-1H-pyrazol-3-yl)methanesulfonamide], the inhibition at 1 µM on FAAH [1] was 0 to 25%; at MAGL [2] it was greater than 75%; at MAGL [5], greater than 75%; at FAAH [6], 0 to 25%. The “MAGL % inh. 5 mg/kg (mouse)” value on MAGL [3] was “D (% inhibition is greater than or equal to 0% and less than 25%)”. For the same molecule, the “FAAH % inh. 5 mg/kg (mouse)” value at FAAH [4] was “D (% inhibition is greater than or equal to 0% and less than 25%)”.

As for `C[C@@H]1CN(C(=O)n2ccc(NS(C)(=O)=O)n2)CCN1Cc1ccc(Cl)c(N2CCC(F)CC2)c1` [Example 138, (R)-N-(1-(4-(4-Chloro-3-(4-fluoropiperidin-1-yl)benzyl)-3-methylpiperazine-1-carbonyl)-1H-pyrazol-3-yl)methanesulfonamide], the inhibition at 1 µM on FAAH [1] is 0 to 25%; at MAGL [2], greater than 75%; at MAGL [5], greater than 75%; on FAAH [6] it was 0 to 25%. In addition, on MAGL [3], the “MAGL % inh. 5 mg/kg (mouse)” value is recorded as “A (% inhibition is greater than or equal to 75%)”. The “FAAH % inh. 5 mg/kg (mouse)” value at FAAH [4] was “D (% inhibition is greater than or equal to 0% and less than 25%)”.

With `C[C@H](c1ccc(Cl)c(N2CCC(F)CC2)c1)N1CCN(C(=O)n2ccc(NS(C)(=O)=O)n2)CC1` [Example 139, (R)-N-(1-(4-(1-(4-Chloro-3-(4-fluoropiperidin-1-yl)phenyl)ethyl)piperazine-1-carbonyl)-1H-pyrazol-3-yl)methanesulfonamide], the inhibition at 1 µM at FAAH [1] is 0 to 25%; at MAGL [2], greater than 75%; at MAGL [5], greater than 75%; on FAAH [6] it was 0 to 25%. For the same molecule, the IC50 is 1 to 10 µM at FAAH [1] and less than 0.1 µM at MAGL [2]. Also, at MAGL [3], the “MAGL % inh. 5 mg/kg (mouse)” value is “D (% inhibition is greater than or equal to 0% and less than 25%)”. In addition, the “FAAH % inh. 5 mg/kg (mouse)” value on FAAH [4] was “D (% inhibition is greater than or equal to 0% and less than 25%)”.

Take `CC1CN(C(=O)n2ccc(NS(C)(=O)=O)n2)CCN1Cc1ccc(C(F)(F)F)c(N2CCC(F)CC2)c1` (stereo not drawn) [Example 141, N-(1-(4-(3-(4-Fluoropiperidin-1-yl)-4-(trifluoromethyl)benzyl)-3-methylpiperazine-1-carbonyl)-1H-pyrazol-3-yl)methanesulfonamide]: the inhibition at 1 µM at FAAH [1] was 0 to 25%; at MAGL [2], greater than 75%; at MAGL [5], greater than 75%; at FAAH [6], 0 to 25%. Moreover, the “MAGL % inh. 5 mg/kg (mouse)” value at MAGL [3] is recorded as “A (% inhibition is greater than or equal to 75%)”. For the same molecule, the “FAAH % inh. 5 mg/kg (mouse)” value on FAAH [4] is “D (% inhibition is greater than or equal to 0% and less than 25%)”.

For `C[C@H]1CN(C(=O)n2ccc(NS(C)(=O)=O)n2)CCN1Cc1ccc(Cl)c(N2CC3COCC3C2)c1` (stereo partly drawn) [Example 143, N-(1-((3S)-4-(4-Chloro-3-(tetrahydro-1H-furo[3,4-c]pyrrol-5(3H)-yl)benzyl)-3-methylpiperazine-1-carbonyl)-1H-pyrazol-3-yl)methanesulfonamide], the inhibition at 1 µM is 0 to 25% on FAAH [1], greater than 75% at MAGL [2], greater than 75% on MAGL [5] and 0 to 25% on FAAH [6]. For the same molecule, the “MAGL % inh. 5 mg/kg (mouse)” value on MAGL [3] was “D (% inhibition is greater than or equal to 0% and less than 25%)”. In addition, at FAAH [4], the “FAAH % inh. 5 mg/kg (mouse)” value is “D (% inhibition is greater than or equal to 0% and less than 25%)”.

Take `C[C@H]1CN(C(=O)n2ccc(NS(C)(=O)=O)n2)CCN1Cc1ccc(Cl)c(N2CCC(F)CC2)c1` [Example 148, (S)-N-(1-(4-(4-Chloro-3-(4-fluoropiperidin-1-yl)benzyl)-3-methylpiperazine-1-carbonyl)-1H-pyrazol-3-yl)methanesulfonamide]: the inhibition at 1 µM is 0 to 25% at FAAH [1], greater than 75% at MAGL [2], greater than 75% on MAGL [5] and 0 to 25% on FAAH [6]. Also, on MAGL [3], the “MAGL % inh. 5 mg/kg (mouse)” value is on record as “A (% inhibition is greater than or equal to 75%)”. For the same molecule, at FAAH [4], the “FAAH % inh. 5 mg/kg (mouse)” value is “D (% inhibition is greater than or equal to 0% and less than 25%)”.

`CC(=O)Nc1ccn(C(=O)N2CC3CN(Cc4ccc(Cl)c(C(C)(C)O)c4)CC3C2)n1` (stereo not drawn) [Example 150, N-(1-(5-(4-Chloro-3-(2-hydroxypropan-2-yl)benzyl)octahydropyrrolo[3,4-c]pyrrole-2-carbonyl)-1H-pyrazol-3-yl)acetamide]: the inhibition at 1 µM at FAAH [1] is 25 to 50%; on MAGL [2] it was greater than 75%; at MAGL [5], greater than 75%; at FAAH [6] it was 0 to 25%. Further, the IC50 at FAAH [1] was 1 to 10 µM; on MAGL [2], less than 0.1 µM. In addition, the “MAGL % inh. 5 mg/kg (mouse)” value at MAGL [3] is “D (% inhibition is greater than or equal to 0% and less than 25%)”. Further, on FAAH [4], the “FAAH % inh. 5 mg/kg (mouse)” value was “D (% inhibition is greater than or equal to 0% and less than 25%)”.
